Measurements: patent US20120202794A1 (priority 2011, published 2012)

How the values were obtained:
[1] = system: HCV Replicon 1b; assay: HCV inhibition assay, HCV replicon 1b (Clone A or ET-lunet cells; RT-PCR or luciferase reporter); assay type: cell-based; details: Hepatitis C virus, 96 h, HCV replicon 1b; 4 days incubation; read-out: Replicon 1b potency EC90
Method in brief: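 Clone A (1500/well) or ET-lunet (3000/well) replicon cells treated with serially diluted compounds (0.5% DMSO, no G418) for 4 days at 37 °C. HCV RNA measured by one-step RT-PCR normalized to rRNA (ΔΔCt) or by luciferase luminescence versus DMSO controls; EC50/EC90 by curve fitting.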

[2] = Cell cytotoxicity assay (MTS), CC90 as reported in Table 1, cell line not stated; assay type: cell-based; details: human; MTS assay; 8 days incubation; cell line not given
Method in brief: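 Compounds, serially diluted from 100 μM, were incubated 8 days at 37° C with Huh7, HepG2 or BxPC3 (2×10^3 cells/well) or CEM (5×10^3 cells/well). Viability was read by MTS, 2 h, absorbance 490 nm. CC90 (90% inhibition) was taken against untreated cells.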

CC(C)C[C@H]1C(=O)N[C@@H](C2CCCC2)CN1C(=O)c1noc(-c2ccc(F)c(F)c2)c1F [Compound 395, (3S,6S)-6-cyclopentyl-4-(5-(3,4-difluorophenyl)-4-fluoroisoxazole-3-carbonyl)-3-isobutylpiperazin-2-one]
EC90 [1]: 1.02 µM | CC90 at 8 days [2]: > 10 µM

CC(C)C[C@H]1C(=O)N[C@@H](C2CCCCC2)CN1C(=O)c1noc(-c2ccc(F)c(F)c2)c1F [Compound 396, (3S,6S)-6-cyclohexyl-4-(5-(3,4-difluorophenyl)-4-fluoroisoxazole-3-carbonyl)-3-isobutylpiperazin-2-one]
EC90 [1]: 1.82 µM | CC90 at 8 days [2]: > 10 µM

CCC[C@H]1C(=O)N[C@@H](c2ccccc2)CN1C(=O)c1cc(-c2ccc(F)cc2)on1 [Compound 397, (3S,6S)-4-(5-(4-fluorophenyl)isoxazole-3-carbonyl)-6-phenyl-3-propylpiperazin-2-one]
EC90 [1]: 0.89 µM | CC90 at 8 days [2]: > 10 µM

CCC[C@H]1C(=O)N[C@@H](c2ccccc2)CN1C(=O)[C@@H]1C[C@H]1c1ccccc1 [Compound 399, (3S,6S)-6-phenyl-4-((1R,2R)-2-phenylcyclopropanecarbonyl)-3-propylpiperazin-2-one]
EC90 [1]: 2.07 µM | CC90 at 8 days [2]: > 10 µM

CC(C)[C@H]1C(=O)N[C@@H](c2ccccc2)CN1C(=O)c1cc(-c2ccc(F)cc2)on1 [Compound 400, (3S,6S)-4-(5-(4-fluorophenyl)isoxazole-3-carbonyl)-3-isopropyl-6-phenylpiperazin-2-one]
EC90 [1]: 0.97 µM | CC90 at 8 days [2]: > 10 µM

CC(C)[C@H]1C(=O)N[C@@H](c2ccccc2)CN1C(=O)[C@@H]1C[C@H]1c1ccccc1 [Compound 402, (3S,6S)-3-isopropyl-6-phenyl-4-((1R,2R)-2-phenylcyclopropanecarbonyl)piperazin-2-one]
EC90 [1]: 6.63 µM | CC90 at 8 days [2]: > 10 µM

CC(C)[C@H]1C(=O)N[C@@H](c2ccccc2)CN1C(=O)c1noc(-c2ccc(F)cc2)n1 [Compound 403, (3S,6S)-4-(5-(4-fluorophenyl)-1,2,4-oxadiazole-3-carbonyl)-3-isopropyl-6-phenyl-piperazin-2-ono]
EC90 [1]: 0.27 µM | CC90 at 8 days [2]: > 10 µM

CC(C)[C@H]1C(=O)N[C@@H](c2ccccc2)CN1C(=O)c1nc(-c2ccc(F)cc2)no1 [Compound 404, (3S,6S)-4-(3-(4-fluorophenyl)-1,2,4-oxadiazole-5-carbonyl)-3-isopropyl-6-phenyl-piperazin-2-one]
EC90 [1]: 1.58 µM | CC90 at 8 days [2]: > 10 µM

CC(C)C[C@H]1CN(C(=O)c2noc(-c3ccc(Cl)cc3)n2)[C@@H](CC(C)C)C(=O)N1 [Compound 405, (3S,6S)-4-(5-(4-chlorophenyl)-1,2,4-oxadiazole-3-carbonyl)-3,6-diisobutylpiperazin-2-one]
EC90 [1]: 0.32 µM | CC90 at 8 days [2]: > 10 µM

CC(C)C[C@H]1C(=O)N[C@@H](c2ccccc2)CN1C(=O)c1noc(-c2ccc(Cl)cc2)n1 [Compound 406, (3S,6S)-4-(5-(4-chlorophenyl)-1,2,4-oxadiazole-3-carbonyl)-3-isobutyl-6-phenyl-piperazin-2-one]
EC90 [1]: 0.23 µM | CC90 at 8 days [2]: > 10 µM

C=CC[C@H]1C(=O)N[C@@H](c2ccccc2)CN1C(=O)c1cc(-c2ccc(F)cc2)on1 [Compound 407, (3S,6S)-3-allyl-4-(5-(4-fluorophenyl)isoxazole-3-carbonyl)-6-phenylpiperazin-2-one]
EC90 [1]: 0.74 µM | CC90 at 8 days [2]: > 10 µM

C=CC[C@H]1C(=O)N[C@@H](CCC)CN1C(=O)c1cc(-c2ccc(F)cc2)on1 [Compound 409, (3S,6S)-3-allyl-4-(5-(4-fluorophenyl)isoxazole-3-carbonyl)-6-propylpiperazin-2-one]
EC90 [1]: 1.88 µM | CC90 at 8 days [2]: > 10 µM

CC(C)C[C@H]1CCN(C(=O)c2cc(-c3ccc(F)cc3)on2)[C@@H](CC(C)C)C(=O)N1 [Compound 411, (3S,7S)-4-(5-(4-fluorophenyl)isoxazole-3-carbonyl)-3,7-diisobutyl-1,4-diazepan-2-one]
EC90 [1]: > 10 µM | CC90 at 8 days [2]: > 10 µM

CC(C)CC1CNC(=O)[C@H](CC(C)C)N(C(=O)c2cc(-c3ccc(F)cc3)on2)C1 (stereo partly drawn) [Compound 413, (3S)-4-(5-(4-fluorophenyl)isoxazole-3-carbonyl)-3,6-diisobutyl-1,4-diazepan-2-one]
EC90 [1]: > 10 µM | CC90 at 8 days [2]: > 10 µM

CC(C)C[C@H]1C(=O)N[C@H](c2ccccc2)CCN1C(=O)c1cc(-c2ccc(F)cc2)on1 [Compound 415, (3S,7S)-4-(5-(4-fluorophenyl)isoxazole-3-carbonyl)-3-isobutyl-7-phenyl-1,4-diazepan-2-one]
EC90 [1]: > 10 µM | CC90 at 8 days [2]: > 10 µM

CC(C)C[C@H]1C(=O)N[C@H](c2ccccc2)CCN1C(=O)[C@@H]1C[C@H]1c1ccccc1 [Compound 417, (3S,75)-3-isobutyl-7-phenyl-4-((1R,2R)-2-phenylcyclopropanecarbonyl)-1,4-diazepan-2-one]
EC90 [1]: 7.77 µM | CC90 at 8 days [2]: > 10 µM

CC(C)C[C@H]1C(=O)NC[C@H](c2ccccc2)CN1C(=O)[C@@H]1C[C@H]1c1ccccc1 [Compound 418, (3S,6S)-3-isobutyl-6-phenyl-4-((1R,2R)-2-phenylcyclopropanecarbonyl)-1,4-diazepan-2-one]
EC90 [1]: > 10 µM | CC90 at 8 days [2]: > 10 µM

CC(C)C[C@H]1C(=O)NC[C@H](c2ccccc2)CN1C(=O)c1cc(-c2ccc(F)cc2)on1 [Compound 420, (3S,6S)-3-isobutyl-6-phenyl-4-(5-(4-fluorophenyl)isoxazole-3-carbonyl)-1,4-diazepan-2-one]
EC90 [1]: > 10 µM | CC90 at 8 days [2]: > 10 µM

CC(C)C[C@H]1CN(C(=O)[C@H]2C[C@@H]2c2ccc(F)cc2F)[C@@H](CC(C)C)C(=O)N1 [Compound 421, (3S,6S)-4-[(1S,2S)-2-(2,4-Difluoro-phenyl)-cyclopropanecarbonyl]-3,6-diisobutyl-piperazin-2-one]
EC90 [1]: > 10 µM | CC90 at 8 days [2]: > 10 µM

C/C=C/[C@H]1CN(C(=O)[C@@H]2C[C@H]2c2ccccc2)[C@@H](CC(C)C)C(=O)N1 [Compound 422, (3S,6S)-3-isobutyl-4-((1R,2R)-2-phenylcyclopropanecarbonyl)-6-((E)-prop-1-en-1-yl)piperazin-2-one]
EC90 [1]: 2.1 µM | CC90 at 8 days [2]: > 10 µM

CC(C)C[C@H]1C(=O)N[C@H](c2cccs2)CN1C(=O)c1cc(-c2ccc(F)cc2)on1 [Compound 428, (3S,6S)-4-(5-(4-fluorophenyl)isoxazole-3-carbonyl)-3-isobutyl-6-(thiophen-2-yl)piperazin-2-one]
EC90 [1]: > 10 µM | CC90 at 8 days [2]: > 10 µM

CC(C)C[C@H]1C(=O)N[C@@H](c2cccs2)CN1C(=O)c1nc(-c2ccc(F)cc2)no1 [Compound 431, (3S,6R)-4-(3-(4-fluorophenyl)-1,2,4-oxadiazole-5-carbonyl)-3-isobutyl-6-(thiophen-2-yl)piperazin-2-one]
EC90 [1]: 0.024 µM | CC90 at 8 days [2]: > 10 µM

CC(C)C[C@H]1C(=O)N[C@@H](c2cccs2)CN1C(=O)/C=C/c1ccc(F)cc1F [Compound 434, (3S,6R)-4-((E)-3-(2,4-difluorophenyl)acryloyl)-3-isobutyl-6-(thiophen-2-yl)pipera-zin-2-one]
EC90 [1]: 0.048 µM | CC90 at 8 days [2]: > 10 µM

CC(C)C[C@H]1C(=O)N[C@@H](c2cccs2)CN1Cc1cc(-c2ccc(F)cc2)on1 [Compound 435, (3S,6R)-4-((5-(4-fluorophenyl)isoxazol-3-yl)methyl)-3-isobutyl-6-(thiophen-2-yl)piperazin-2-one]
EC90 [1]: 0.26 µM | CC90 at 8 days [2]: > 10 µM

Cc1ccsc1[C@H]1CN(C(=O)[C@@H]2C[C@H]2c2ccc(F)cc2)[C@@H](CC(C)C)C(=O)N1 [Compound 438, (3S,6R)-4-((1R,2R)-2-(4-fluorophenyl)cyclopropanecarbonyl)-3-isobutyl-6-(3-methylthiophen-2-yl)piperazin-2-one]
EC90 [1]: > 10 µM | CC90 at 8 days [2]: > 10 µM

Cc1ccsc1[C@H]1CN(C(=O)c2noc(-c3ccc(F)cc3)n2)[C@@H](CC(C)C)C(=O)N1 [Compound 441, (3S,6R)-4-(5-(4-fluorophenyl)-1,2,4-oxadiazole-3-carbonyl)-3-isobutyl-6-(3-methylthiophen-2-yl)piperazin-2-one]
EC90 [1]: > 10 µM | CC90 at 8 days [2]: > 10 µM

CC(C)C[C@H]1C(=O)N[C@@H](C2CCC2)CN1C(=O)c1cc(-c2ccc(F)cc2)on1 [Compound 443, (3S,6S)-6-cyclobutyl-4-(5-(4-fluorophenyl)isoxazole-3-carbonyl)-3-isobutylpiperazin-2-one]
EC90 [1]: 0.74 µM | CC90 at 8 days [2]: > 10 µM

C/C=C/[C@H]1CN(C(=O)c2cc(-c3ccc(F)cc3)no2)[C@@H](CC(C)C)C(=O)N1 [Compound 447, (3S,6S)-4-(3-(4-fluorophenyl)isoxazole-5-carbonyl)-3-isobutyl-6-((E)-prop-1-en-1-yl)piperazin-2-one]
EC90 [1]: 0.14 µM | CC90 at 8 days [2]: > 10 µM

C/C=C/[C@H]1CN(C(=O)c2noc(-c3ccc(F)cc3)n2)[C@@H](CC(C)C)C(=O)N1 [Compound 448, (3S,6S)-4-(5-(4-fluorophenyl)-1,2,4-oxadiazole-3-carbonyl)-3-isobutyl-6-((E)-prop-1-en-1-yl)piperazin-2-one]
EC90 [1]: 0.11 µM | CC90 at 8 days [2]: > 10 µM

C/C=C/[C@H]1CN(C(=O)/C=C/c2ccc(F)cc2F)[C@@H](CC(C)C)C(=O)N1 [Compound 449, (3S,6S)-4-((E)-3-(2,4-difluorophenyl)acryloyl)-3-isobutyl-6-((E)-prop-1-en-1-yl)piperazin-2-one]
EC90 [1]: 1.19 µM | CC90 at 8 days [2]: > 10 µM

CC(C)C[C@H]1C(=O)N[C@@H](c2ccsc2)CN1C(=O)c1cc(-c2ccc(F)cc2)no1 [Compound 450, (3S,6S)-4-(3-(4-fluorophenyl)isoxazole-5-carbonyl)-3-isobutyl-6-(thiophen-3-yl)piperazin-2-one]
EC90 [1]: 0.059 µM | CC90 at 8 days [2]: > 10 µM
